# Laboratory results published in US8138168B1 (Takeda Pharmaceutical Company Limited, priority 2007, dated 2012).
# pIC50: −log10 of the molar value.
# Target: T1, Recombinant human renin (Homo sapiens, UniProt P00797)
# T1 construct: isolate the active form (residues 67-406); made in house; host or cells: FreeStyle 293-F cells (transient expression of pcDNA3.1(+)/hREN)
# T1 sequence (P00797 67-406): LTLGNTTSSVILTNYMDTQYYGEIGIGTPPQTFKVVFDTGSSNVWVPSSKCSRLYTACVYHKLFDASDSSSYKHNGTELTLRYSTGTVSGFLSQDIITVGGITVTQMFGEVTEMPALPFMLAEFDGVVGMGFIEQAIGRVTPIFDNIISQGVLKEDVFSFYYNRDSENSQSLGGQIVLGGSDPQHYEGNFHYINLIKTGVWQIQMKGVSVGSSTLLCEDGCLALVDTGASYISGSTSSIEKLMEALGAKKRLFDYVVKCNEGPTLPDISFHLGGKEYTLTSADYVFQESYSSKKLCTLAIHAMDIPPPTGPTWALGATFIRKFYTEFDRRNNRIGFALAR
# Assay: In vitro enzymatic activity assay of renin inhibitors (fluorogenic peptide substrate)
# Assay type: biochemical
# Conditions: read-out: IC50 of Exemplified Compounds Against Renin
# Summary of the method: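 Enzyme: recombinant human renin, 3 nM final, 10 min compound pre-incubation at 37 °C; buffer 50 mM Hepes pH 7.4 with 0.1 mg/mL BSA or extra 2% BSA; 5% DMSO.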
row,Structure (SMILES),pIC50
1,"COCCCn1c([C@@H]2CCCN(C(=O)C[C@H](N)Cc3ccc(-c4ccoc4)cc3)C2)nc2ccccc21 [Compound 145, (R)-3-amino-4-(4-(furan-3-yl)phenyl)-1-((R)-3-(1-(3-methoxypropyl)-1H-benzo[d]imidazol-2-yl)piperidin-1-yl)butan-1-one]",> 7.00
2,"COCCCn1c([C@@H]2CCCN(C(=O)C[C@H](N)Cc3ccc(-c4ccco4)cc3)C2)nc2ccccc21 [Compound 146, (R)-3-Amino-4-(4-(furan-2-yl)phenyl)-1-((R)-3-(1-(3-methoxypropyl)-1H-benzo[d]imidazol-2-yl)piperidin-1-yl)butan-1-one]",> 7.00
3,"COCCCn1c([C@@H]2CCCN(C(=O)C[C@H](N)Cc3ccc(-c4ccc(N(C)C)nc4)cc3)C2)nc2ccccc21 [Compound 147, (R)-3-amino-4-(4-(6-(dimethylamino)pyridin-3-yl)phenyl)-1-((R)-3-(1-(3-methoxypropyl)-1H-benzo[d]imidazol-2-yl)piperidin-1-yl)butan-1-one]",> 7.00
4,"COCCCn1c([C@@H]2CCCN(C(=O)C[C@H](N)Cc3ccc(-c4cncnc4)cc3)C2)nc2ccccc21 [Compound 149, (R)-3-Amino-1-((R)-3-(1-(3-methoxypropyl)-1H-benzo[d]imidazol-2-yl)piperidin-1-yl)-4-(4-(pyrimidin-5-yl)phenyl)butan-1-one]",> 7.00
5,"COCCCn1c([C@@H]2CCCN(C(=O)C[C@H](N)Cc3ccc(-c4ccnc(F)c4)cc3)C2)nc2ccccc21 [Compound 150, (R)-3-amino-4-(4-(2-fluoropyridin-4-yl)phenyl)-1-((R)-3-(1-(3-methoxypropyl)-1H-benzo[d]imidazol-2-yl)piperidin-1-yl)butan-1-one]",> 7.00
6,"COCCCn1c([C@@H]2CCCN(C(=O)C[C@H](N)Cc3ccc(-c4cccnc4F)cc3)C2)nc2ccccc21 [Compound 151, (R)-3-amino-4-(4-(2-fluoropyridin-3-yl)phenyl)-1-((R)-3-(1-(3-methoxypropyl)-1H-benzo[d]imidazol-2-yl)piperidin-1-yl)butan-1-one]",> 7.00
7,"COCCCn1c([C@@H]2CCCN(C(=O)C[C@H](N)Cc3ccc(-c4cc[nH]c4)cc3)C2)nc2ccccc21 [Compound 152, (R)-4-(4-(1H-pyrrol-3-yl)phenyl)-3-amino-1-((R)-3-(1-(3-methoxypropyl)-1H-benzo[d]imidazol-2-yl)piperidin-1-yl)butan-1-one]",> 7.00
8,"COCCCn1c([C@@H]2CCCN(C(=O)C[C@H](N)Cc3ccc(-c4ccc[nH]4)cc3)C2)nc2ccccc21 [Compound 153, (R)-4-(4-(1H-pyrrol-2-yl)phenyl)-3-amino-1-((R)-3-(1-(3-methoxypropyl)-1H-benzo[d]imidazol-2-yl)piperidin-1-yl)butan-1-one]",> 7.00
9,"COCCCn1c([C@@H]2CCCN(C(=O)C[C@H](N)Cc3ccc(-c4cnc(N)nc4)cc3)C2)nc2ccccc21 [Compound 154, (R)-3-amino-4-(4-(2-aminopyrimidin-5-yl)phenyl)-1-((R)-3-(1-(3-methoxypropyl)-1H-benzo[d]imidazol-2-yl)piperidin-1-yl)butan-1-one]",> 7.00
10,"COCCCn1c([C@@H]2CCCN(C(=O)C[C@H](N)Cc3ccc(-c4ccccc4Cl)cc3)C2)nc2ccccc21 [Compound 155, (R)-3-amino-4-(2′-chlorobiphenyl-4-yl)-1-((R)-3-(1-(3-methoxypropyl)-1H-benzo[d]imidazol-2-yl)piperidin-1-yl)butan-1-one]",> 7.00
11,"COCCCn1c([C@@H]2CCCN(C(=O)C[C@H](N)Cc3ccc(-c4ccc(OC)cc4)cc3)C2)nc2ccccc21 [Compound 156, (R)-3-amino-4-(4′-methoxybiphenyl-4-yl)-1((R)-3-(1-(3-methoxypropyl)-1H-benzo[d]imidazol-2-yl)piperidin-1-yl)butan-1-one]",> 7.00
12,"COCCCn1c([C@@H]2CCCN(C(=O)C[C@H](N)Cc3ccc(-c4ccccc4C)cc3)C2)nc2ccccc21 [Compound 157, (R)-3-amino-1-((R)-3-(1-(3-methoxypropyl)-1H-benzo[d]imidazol-2-yl)piperidin-1-yl)-4-(2′-methylbiphenyl-4-yl)butan-1-one]",> 7.00
13,"COCCCn1c([C@@H]2CCCN(C(=O)C[C@H](N)Cc3ccc(-c4cccc(OC)c4)cc3)C2)nc2ccccc21 [Compound 158, (R)-3-Amino-4-(3′-methoxybiphenyl-4-yl)-1-((R)-3-(1-(3-methoxypropyl)-1H-benzo[d]imidazol-2-yl)piperidin-1-yl)butan-1-one]",> 7.00
14,COCCCn1c([C@@H]2CCCN(C(=O)C[C@H](N)Cc3ccc(-c4ccccc4OC)cc3)C2)nc2ccccc21 [Compound 159],> 7.00
15,"COCCCn1c([C@@H]2CCCN(C(=O)C[C@H](N)Cc3ccc(-c4ccccc4F)cc3)C2)nc2ccccc21 [Compound 160, (R)-3-amino-4-(2′-fluorobiphenyl-4-yl)-1-((R)-3-(1-(3-methoxypropyl)-1H-benzo[d]imidazol-2-yl)piperidin-1-yl)butan-1-one]",> 7.00
16,"COCCCn1c([C@@H]2CCCN(C(=O)C[C@H](N)Cc3ccc(-c4ccc(N(C)C)cc4)cc3)C2)nc2ccccc21 [Compound 161, (R)-3-amino-4-(4′-(dimethylamino)biphenyl-4-yl)-1-((R)-3-(1-(3-methoxypropyl)-1H-benzo[d]imidazol-2-yl)piperidin-1-yl)butan-1-one]",> 7.00
17,"COCCCn1c([C@@H]2CCCN(C(=O)C[C@H](N)Cc3ccc(-c4cnccc4OC)cc3)C2)nc2ccccc21 [Compound 162, (R)-3-Amino-1-((R)-3-(1-(3-methoxypropyl)-1H-benzo[d]imidazol-2-yl)piperidin-1-yl)-4-(4-(4-methoxypyridin-3-yl)phenyl)butan-1-one]",> 7.00
18,"COCCCn1c([C@@H]2CCCN(C(=O)C[C@H](N)Cc3ccc(-c4cccnc4OC)cc3)C2)nc2ccccc21 [Compound 163, (R)-3-amino-1-((R)-3-(1-(3-methoxypropyl)-1H-benzo[d]imidazol-2-yl)piperidin-1-yl)-4-(4-(2-methoxypyridin-3-yl)phenyl)butan-1-one]",> 7.00
19,"COCCCn1c([C@@H]2CCCN(C(=O)C[C@H](N)Cc3ccc(-c4ccc(C#N)cc4)cc3)C2)nc2ccccc21 [Compound 164, 4′-((R)-2-amino-4-((R)-3-(1-(3-methoxypropyl)-1H-benzo[d]imidazol-2-yl)piperidin-1-yl)-4-oxobutyl)biphenyl-4-carbonitrile]",> 7.00
20,"COCCCn1c([C@@H]2CCCN(C(=O)C[C@H](N)Cc3ccc(-c4ccc(S(C)(=O)=O)cc4)cc3)C2)nc2ccccc21 [Compound 165, (R)-3-amino-1((R)-3-(1-(3-methoxypropyl)-1H-benzo[d]imidazol-2-yl)piperidin-1-yl)-4-(4′-(methylsulfonyl)biphenyl-4-yl)butan-1-one]",> 7.00
21,"COCCCn1c([C@@H]2CCCN(C(=O)C[C@H](N)Cc3ccc(-c4c(C)noc4C)cc3)C2)nc2ccccc21 [Compound 166, (R)-3-amino-4-(4-(3,5-dimethylisoxazol-4-yl)phenyl)-1-((R)-3-(1-(3-methoxypropyl)-1H-benzo[d]imidazol-2-yl)piperidin-1-yl)butan-1-one]",6.00 to 7.00
22,"COCCCn1c([C@@H]2CCCN(C(=O)C[C@H](N)Cc3ccc(-c4cccnc4Cl)cc3)C2)nc2ccccc21 [Compound 167, (R)-3-amino-4-(4-(2-chloropyridin-3-yl)phenyl)-1-((R)-3-(1-(3-methoxypropyl)-1H-benzo[d]imidazol-2-yl)piperidin-1-yl)butan-1-one]",> 7.00
23,"COCCCn1c([C@@H]2CCCN(C(=O)C[C@H](N)Cc3ccc(-c4ccc(C(N)=O)cc4)cc3)C2)nc2ccccc21 [Compound 168, 4′-((R)-2-Amino-4-((R)-3-(1-(3-methoxypropyl)-1H-benzo[d]imidazol-2-yl)piperidin-1-yl)-4-oxobutyl)biphenyl-4-carboxamide]",> 7.00
24,"COCCCn1c([C@@H]2CCCN(C(=O)C[C@H](N)Cc3ccc(-c4c[nH]c(=O)[nH]c4=O)cc3)C2)nc2ccccc21 [Compound 169, 5-(4-((R)-2-amino-4-((R)-3-(1-(3-methoxypropyl)-1H-benzo[d]imidazol-2-yl)piperidin-1-yl)-4-oxobutyl)phenyl)pyrimidine-2,4(1H,3H)-dione]",> 7.00
25,"COCCCn1c([C@@H]2CCCN(C(=O)C[C@H](N)Cc3ccc(-c4ccc(N)cc4)cc3)C2)nc2ccccc21 [Compound 170, (R)-3-Amino-4-(4′-aminobiphenyl-4-yl)-1-((R)-3-(1-(3-methoxypropyl)-1H-benzo[d]imidazol-2-yl)piperidin-1-yl)butan-1-one]",> 7.00
26,"COCCCn1c([C@@H]2CCCN(C(=O)C[C@H](N)Cc3ccc(-c4ccc(NC(=O)NC5CC5)cc4)cc3)C2)nc2ccccc21 [Compound 171, 1-(4′-((R)-2-Amino-4-((R)-3-(1-(3-methoxypropyl)-1H-benzo[d]imidazol-2-yl)piperidin-1-yl)-4-oxobutyl)biphenyl-4-yl)-3-cyclopropylurea]",> 7.00
27,"COCCCn1c([C@@H]2CCCN(C(=O)C[C@H](N)Cc3ccc(-c4ccc(NC(N)=O)cc4)cc3)C2)nc2ccccc21 [Compound 172, 1-(4′-((R)-2-amino-4-((R)-3-(1-(3-methoxypropyl)-1H-benzo[d]imidazol-2-yl)piperidin-1-yl)-4-oxobutyl)biphenyl-4-yl)urea]",> 7.00
